Measurements published in patent US20250171431A1, “HETEROCYCLIC INHIBITORS OF IGF-1R FOR TREATMENT OF DISEASE” (HORIZON THERAPEUTICS IRELAND DAC, priority 2023, published 2025).

biological target: IGF-1R (Homo sapiens (Human), UniProt P08069); assay: Example B-1: IGF-1R Assay (PC3 cells, IGF1 stimulation, AlphaLISA); format: cell-based; conditions: 200 ng/mL IGF1 stimulation, read-out: Biological Activity against IGF-1R IC50
Summary of the method: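 Readout is AlphaLISA signal from lysed PC3 cells, expressed as % inhibition versus vehicle and EC80 controls and banded by IC50. Before lysis, the cells were starved of serum for 2 h, exposed to 3× serially diluted compound for 2 h, and stimulated for 30 min with 200 ng/mL IGF1 (final).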

Sequence of IGF-1R (P08069 31-1367): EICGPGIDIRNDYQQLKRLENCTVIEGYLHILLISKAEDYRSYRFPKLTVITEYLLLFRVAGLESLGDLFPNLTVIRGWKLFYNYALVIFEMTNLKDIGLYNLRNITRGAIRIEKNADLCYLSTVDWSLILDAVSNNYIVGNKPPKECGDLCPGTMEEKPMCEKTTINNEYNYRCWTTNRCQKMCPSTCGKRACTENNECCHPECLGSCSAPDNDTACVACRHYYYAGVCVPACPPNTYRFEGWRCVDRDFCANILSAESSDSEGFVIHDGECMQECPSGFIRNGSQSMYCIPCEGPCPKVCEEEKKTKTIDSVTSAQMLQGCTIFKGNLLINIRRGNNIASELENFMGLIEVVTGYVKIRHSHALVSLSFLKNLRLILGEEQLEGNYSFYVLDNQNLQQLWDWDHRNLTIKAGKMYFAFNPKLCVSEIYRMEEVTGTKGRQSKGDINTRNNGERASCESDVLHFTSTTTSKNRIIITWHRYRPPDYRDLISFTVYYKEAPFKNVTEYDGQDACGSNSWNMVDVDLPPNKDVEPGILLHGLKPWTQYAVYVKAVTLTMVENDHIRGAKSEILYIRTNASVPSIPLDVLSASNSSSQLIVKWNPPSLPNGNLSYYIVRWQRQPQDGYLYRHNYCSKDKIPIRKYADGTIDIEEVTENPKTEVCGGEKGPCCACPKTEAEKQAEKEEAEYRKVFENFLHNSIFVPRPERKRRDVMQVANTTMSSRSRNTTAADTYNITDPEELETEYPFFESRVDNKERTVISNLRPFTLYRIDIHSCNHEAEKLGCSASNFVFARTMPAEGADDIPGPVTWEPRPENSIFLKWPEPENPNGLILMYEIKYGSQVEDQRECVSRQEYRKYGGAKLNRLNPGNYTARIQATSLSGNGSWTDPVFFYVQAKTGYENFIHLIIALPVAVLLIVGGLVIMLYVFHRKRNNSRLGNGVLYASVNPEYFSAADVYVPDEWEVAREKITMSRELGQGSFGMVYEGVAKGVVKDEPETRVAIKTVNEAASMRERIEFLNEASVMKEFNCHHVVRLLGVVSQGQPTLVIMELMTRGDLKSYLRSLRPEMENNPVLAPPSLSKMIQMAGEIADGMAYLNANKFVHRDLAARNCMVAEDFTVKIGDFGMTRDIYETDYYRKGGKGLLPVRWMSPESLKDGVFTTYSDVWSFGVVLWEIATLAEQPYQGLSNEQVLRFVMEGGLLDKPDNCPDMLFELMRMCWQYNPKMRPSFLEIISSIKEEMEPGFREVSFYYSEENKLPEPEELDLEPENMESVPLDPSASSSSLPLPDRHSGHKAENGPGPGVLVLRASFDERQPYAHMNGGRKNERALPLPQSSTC

IC50 [nM] | SMILES
≤ 500 | COc1cc(Nc2nccc(Nc3ccc4c(c3)CCC(=O)N4)n2)ccc1OCCCN1CCCCC1 [Compound 448, 6-{2-[3-methoxy-4-(3-piperidinopropoxy)phenylamino]-4-pyrimidinylamino}-3,4-dihydro-2(1H)-quinolinone]
≤ 500 | COc1cc(Nc2nccc(Nc3cnc4ccccc4c3)n2)ccc1N1CCC(N2CCN(C)CC2)CC1 [Compound 2, 2-{3-methoxy-4-[4-(4-methyl-1-piperazinyl)-1-piperidyl]phenylamino}-4-(3-quinolylamino)pyrimidine]
≤ 500 | COc1cc(Nc2nccc(Nc3cnc4c(F)c(F)ccc4c3)n2)ccc1OCCCN1CCCCC1 [Compound 393, 4-(7,8-difluoro-3-quinolylamino)-2-[3-methoxy-4-(3-piperidinopropoxy)phenylamino]pyrimidine]
≤ 500 | COc1cc(N2CCN(C)CC2)ccc1Nc1nccc(Nc2cnc3c(Cl)cccc3c2)n1 [Compound 467, 4-(8-chloro-3-quinolylamino)-2-[2-methoxy-4-(4-methyl-1-piperazinyl)phenylamino] pyrimidine]
≤ 500 | COc1cc(N2CCN(CC#N)CC2)ncc1Nc1ncc(F)c(Nc2cc3ccccc3nc2C(N)=O)n1 [Compound 493, 3-(2-{6-[4-(cyanomethyl)-1-piperazinyl]-4-methoxy-3-pyridylamino}-5-fluoro-4-pyrimidinylamino)-2-quinolinecarboxamide]
2000 to 10000 | Brc1ccc2cc(Nc3ccnc(Nc4ccc(OCCCN5CCOCC5)cc4)n3)cnc2c1 [Compound 409, 4-(7-bromo-3-quinolylamino)-2-[p-(3-morpholinopropoxy)phenylamino]pyrimidine]
≤ 500 | COc1cc(Nc2nccc(Nc3cnc4cc(F)ccc4c3)n2)ccc1OCCCN1CCCCC1 [Compound 97, 4-(7-fluoro-3-quinolylamino)-2-[3-methoxy-4-(3-piperidinopropoxy)phenylamino]pyrimidine]
≤ 500 | COc1cc(Nc2nccc(Nc3cnc4c(Cl)cccc4c3)n2)ccc1N1CCOCC1 [Compound 461, 4-(8-chloro-3-quinolylamino)-2-(3-methoxy-4-morpholinophenylamino) pyrimidine]
≤ 500 | COc1cc(Nc2nccc(Nc3cnc4c(c3)SC(C)CC4)n2)ccc1OCCCN1CCCCC1 (stereo not shown) [Compound 61, 2-[3-methoxy-4-(3-piperidinopropoxy)phenylamino]-4-(2-methyl-3,4-dihydro-2H-1-thia-5-azanaphth-7-ylamino)pyrimidine]
≤ 500 | COc1cc(Nc2nccc(Nc3cnc4c(c3)OCCO4)n2)ccc1O[C@H]1C[C@H](N2CCS(=O)(=O)CC2)C1 [Compound 359, 4-[(1r,3r)-3-{4-[4-(2,3-dihydro-1,4-dioxa-5-aza-7-naphthylamino)-2-pyrimidinylamino]-2-methoxyphenoxy}cyclobutyl]-1λ^6,4-thiazinane-1,1-dione]
2000 to 10000 | COc1ccc2cc(Nc3ccnc(Nc4ccc(O[C@H]5C[C@H](N6CCS(=O)(=O)CC6)C5)cc4)n3)cnc2c1 [Compound 353]
2000 to 10000 | N#Cc1ccc2ncc(Nc3ccnc(Nc4ccc(OCCCN5CCOCC5)cc4)n3)cc2c1 [Compound 396, 3-{2-[p-(3-morpholinopropoxy)phenylamino]-4-pyrimidinylamino}-6-quinolinecarbonitrile]
≤ 500 | c1ccc2ncc(Nc3ccnc(Nc4ccc(OCCCN5CCOCC5)nc4)n3)cc2c1 [Compound 31, 2-[6-(3-morpholinopropoxy)-3-pyridylamino]-4-(3-quinolylamino)pyrimidine]
2000 to 10000 | O=S1(=O)CCN([C@H]2C[C@H](Oc3ccc(Nc4nccc(Nc5cnc6cc(Cl)ccc6c5)n4)cc3)C2)CC1 [Compound 350, 4-[(1r,3r)-3-{p-[4-(7-chloro-3-quinolylamino)-2-pyrimidinylamino]phenoxy}cyclobutyl]-1λ^6,4-thiazinane-1,1-dione]
≤ 500 | COc1cc(Nc2nccc(Nc3cnc4ccc(Cl)cc4c3)n2)cnc1N1CCN(C)CC1 [Compound 477, 4-(6-chloro-3-quinolylamino)-2-[5-methoxy-6-(4-methyl-1-piperazinyl)-3-pyridylamino]pyrimidine]
≤ 500 | COc1cc(Nc2nccc(Nc3cnc4c(c3)CCCC4)n2)ccc1OCCCN1CCCCC1 [Compound 374, 2-[3-methoxy-4-(3-piperidinopropoxy)phenylamino]-4-(5,6,7,8-tetrahydro-3-quinolylamino)pyrimidine]
≤ 500 | O=S1(=O)CCN([C@H]2C[C@H](Oc3ccc(Nc4nccc(Nc5cnc6c(c5)OCCO6)n4)cc3)C2)CC1 [Compound 348]
≤ 500 | COc1cc(Nc2nccc(Nc3cc4cccc(F)c4[nH]c3=O)n2)cnc1N1CC2(COC2)C1 [Compound 234, 8-fluoro-3-(2-{5-methoxy-6-(2-oxa-6-aza-6-spiro[3.3]heptyl)-3-pyridylamino}-4-pyrimidinylamino)-1,2-dihydro-2-quinolinone]
≤ 500 | COc1cc(N2CCN(CC#N)CC2)ncc1Nc1nccc(Nc2cc3cccc(F)c3[nH]c2=O)n1 [Compound 226, (4-{5-[4-(8-fluoro-2-oxo-1,2-dihydro-3-quinolylamino)-2-pyrimidinylamino]-4-methoxy-2-pyridyl}-1-piperazinyl)acetonitrile]
≤ 500 | COc1cc(Nc2nccc(Nc3cnc4c(Cl)cccc4c3)n2)ccc1O[C@H]1CC[C@@H](N2CCOCC2)CC1 [Compound 333, 4-(8-chloro-3-quinolylamino)-2-{3-methoxy-4-[(1s,4s)-4-morpholinocyclohexyloxy]phenylamino}pyrimidine]
500 to 2000 | COc1cc(Nc2nccc(Nc3cc4cccc(F)c4[nH]c3=O)n2)cnc1O[C@@H]1CCN(C)C1 [Compound 165, 3-(2-{6-[(R)-1-methyl-3-pyrrolidinyloxy]-5-methoxy-3-pyridylamino}-4-pyrimidinylamino)-8-fluoro-1,2-dihydro-2-quinolinone]
≤ 500 | COc1cc(Nc2nccc(Nc3cnc4c(c3)CCOC4)n2)ccc1OCCCN1CCCCC1 [Compound 54, 4-(6,8-dihydro-5H-7-oxa-1-azanaphth-3-ylamino)-2-[3-methoxy-4-(3-piperidinopropoxy)phenylamino] pyrimidine]

SMILES | IC50 [nM]
COc1cc(Nc2nccc(Nc3cnc4c(c3)CCC(C)(C)C4)n2)ccc1O[C@H]1C[C@H](N(C)C)C1 [Compound 338, 4-(7,7-dimethyl-5,6,7,8-tetrahydro-3-quinolylamino)-2-{3-methoxy-4-[(1r,3r)-3-(dimethylamino)cyclobutoxy]phenylamino}pyrimidine] | ≤ 500
CN1[C@@H]2COC[C@H]1C[C@H](Oc1ccc(Nc3nccc(Nc4cnc5ccccc5c4)n3)cc1)C2 [Compound 30, 2-(p-{(1R,5S,7s)-9-methyl-3-oxa-9-azabicyclo[3.3.1]non-7-yloxy}phenylamino)-4-(3-quinolylamino)pyrimidine] | ≤ 500
COc1cc(Nc2nccc(Nc3cnc4c(F)c(F)ccc4c3)n2)ccc1O[C@H]1C[C@H](N(C)C)C1 [Compound 323, 4-(7,8-difluoro-3-quinolylamino)-2-{3-methoxy-4-[(1r,3r)-3-(dimethylamino)cyclobutoxy]phenylamino}pyrimidine] | ≤ 500
CN(C)[C@H]1C[C@H](Oc2ccc(Nc3nccc(Nc4cnc5c(c4)OCCO5)n3)cc2)C1 [Compound 317, 4-(2,3-dihydro-1,4-dioxa-5-aza-7-naphthylamino)-2-{p-[(1r,3r)-3-(dimethylamino)cyclobutoxy]phenylamino}pyrimidine] | ≤ 500
c1ccc2ncc(Nc3ccnc(Nc4ccc(O[C@H]5C[C@@H](N6CCOCC6)C5)cc4)n3)cc2c1 [Compound 28, 4-(3-quinolylamino)-2-{p-[(1s,3s)-3-morpholinocyclobutoxy]phenylamino}pyrimidine] | ≤ 500
COc1cc(Nc2nccc(Nc3cnc4ccccc4c3)n2)ccc1O[C@H]1C[C@H](N2CCOCC2)C1 [Compound 22, 2-{3-methoxy-4-[(1r,3r)-3-morpholinocyclobutoxy]phenylamino}-4-(3-quinolylamino)pyrimidine] | ≤ 500
COc1cc(Nc2nccc(Nc3cnc4cc(Br)ccc4c3)n2)ccc1O[C@H]1C[C@H](N(C)C)C1 [Compound 328, 4-(7-bromo-3-quinolylamino)-2-{3-methoxy-4-[(1r,3r)-3-(dimethylamino)cyclobutoxy]phenylamino}pyrimidine] | ≤ 500
COc1ccc2ncc(Nc3ccnc(Nc4ccc(O[C@H]5C[C@@H](N(C)C)C5)c(OC)c4)n3)cc2c1 [Compound 277, 4-(6-methoxy-3-quinolylamino)-2-{3-methoxy-4-[(1s,3s)-3-(dimethylamino)cyclobutoxy]phenylamino}pyrimidine] | ≤ 500
COc1cc(Nc2nccc(Nc3cnc4c(c3)OCC(CN(C)C)O4)n2)ccc1O[C@H]1C[C@@H](N(C)C)C1 (stereo partly shown) [Compound 179, 4-{3-[(dimethylamino)methyl]-2,3-dihydro-1,4-dioxa-5-aza-7-naphthylamino}-2-{3-methoxy-4-[(1s,3s)-3-(dimethylamino)cyclobutoxy]phenylamino}pyrimidine] | ≤ 500
COc1cc(Nc2nccc(Nc3cnc4ccc(OC(F)(F)F)cc4c3)n2)ccc1O[C@H]1C[C@@H](N(C)C)C1 [Compound 128, N2-(4-((1s,3s)-3-(dimethylamino)cyclobutoxy)-3-methoxyphenyl)-N4-(6-(trifluoromethoxy)quinolin-3-yl)pyrimidine-2,4-diamine] | ≤ 500
COc1cc(Nc2ncc(F)c(Nc3cnc4cc(F)c(F)cc4c3)n2)ccc1O[C@H]1C[C@@H](N(C)C)C1 [Compound 173, N4-(6,7-difluoroquinolin-3-yl)-N2-(4-((1s,3s)-3-(dimethylamino)cyclobutoxy)-3-methoxyphenyl)-5-fluoropyrimidine-2,4-diamine] | ≤ 500
CN1[C@@H]2COC[C@H]1C[C@@H](Oc1ccc(Nc3nccc(Nc4cnc5ccccc5c4)n3)cc1)C2 [Compound 29, 2-(p-{(1R,5S,7r)-9-methyl-3-oxa-9-azabicyclo[3.3.1]non-7-yloxy}phenylamino)-4-(3-quinolylamino)pyrimidine] | ≤ 500
